Assay: Interfacial tension of the lipid against water (measure of polarity)
Type: physicochemical
Settings: lower value = more polar oil
Excerpt: Öle und Fette unterscheiden sich unter anderem in ihrer Polarität, welche schwierig zu definieren ist. Es wurde bereits vorgeschlagen, die Grenzflächenspannung gegenüber Wasser als Maß für den Polaritätsindex eines Öls bzw. einer Ölphase anzunehmen. Dabei gilt, daß die Polarität der betreffenden Ölphase umso größer ist, je niedriger die Grenzflächenspannung zwischen dieser Ölphase und Wasser ist. Erfindungsgemäß wird die Grenzflächenspannung als ein mögliches Maß für die Polarität einer gegebenen Ölkomponente angesehen.
Die Grenzflächenspannung ist diejenige Kraft, die an einer gedachten, in der Grenzfläche zwischen zwei Phasen befindlichen Linie der Länge von einem Meter wirkt. Die physikalische Einheit für diese Grenzflächenspannung errechnet sich klassisch nach der Beziehung Kraft/Länge und wird gewöhnlich in mN/m (Millinewton geteilt durch Meter) wiedergegeben. Sie hat positives Vorzeichen, wenn sie das Bestreben hat, die Grenzfläche zu verkleinern. Im umgekehrten Falle hat sie negatives Vorzeichen.
Die nachfolgende Tabelle 1 führt mittelpolare Lipide auf, die die erfindungsgemäß sind. Die betreffenden Grenzflächenspannungen gegen Wasser sind in der letzten Spalte angegeben. Es ist jedoch auch vorteilhaft, Gemische aus höher- und niederpolaren und dergleichen zu verwenden, sofern gewährleistet ist, daß die Gesamtpolarität der Ölphase im beanspruchten Bereich liegt. Tabelle 1

| Grenzflächenspannungen gegen Wasser | Compound |
| --- | --- |
| 29,7 mN/m | Octyl lsostearate [Prisorine® 2036] |
| 20,2 mN/m | CCCCCCCC(=O)OCC(COC(=O)CCCCCCC)OC(=O)CCCCCCC [Trivent® OCG, Tricaprylin] |
| 22,1 mN/m | CCCCCCCCCCCCCC(=O)OCC(CCCCCCCC)CCCCCCCCCC (centres unmarked) [MOD, Octyldodeceyl Myristate] |
| 28,7 mN/m | CCCCCCCCCCCCCCCCCCOC(=O)CCCCCC [Tegosoft® SH, Stearyl Heptanoate] |

Second part, the compound before the results:

| Compound | Grenzflächenspannungen gegen Wasser |
| --- | --- |
| CCCCCCCCCCC(CO)CCCCCCCC (centres unmarked) [Eutanol® G, Octyldodecanol] | 24,8 mN/m |
| CCCCCCCCCCCCCCCCCC(=O)OC(C)C [Isopropylstearat, Isopropyl Stearate] | 21,9 mN/m |
| CCCCCCCCC(CO)CCCCCC (centres unmarked) [Isofol® 16, Hexyl Decanol] | 24,3 mN/m |
| CCCCCCCCCCCCCCCCCC(=O)OCCCCCCCC [Cetiol® 868, Octyl Stearate] | 28,4 mN/m |
